Assays:
[1] = system: Rat liver cancer cells (Morris7777); experiment: In cell DNP conversion in rat liver cancer cells, co-polarized with 1-13C-pyruvate; assay type: cell-based; details: for AUC (arb. Units), area under the metabolic curve: 10 million cells, approx. 3.5 mM of each substrate, 37 C
Procedure: (§1) The experiments were performed with a co-polarization of 1-^13C-1,1-Bis(acetoxy(methyl-d2))-2,2′-d4-cyclopropane and 1-^13C-pyruvic acid in equal amounts of compounds (30 μmol) resulting in a concentration of approx. 3.5 mM of each substrate in the experiments. The DNP preparation of 1-^13C-1,1-Bis(acetoxy(methyl-d2))-2,2′-d4-cyclopropane was performed as described in example 2 and the DNP preparation of 1-^13C-pyruvate was performed as described in WO 2006/011809. The two substrates were co-polarized without mixing the substrates.
Rat liver cancer cells (Morris777) were grown in RPMI+10% FBS and antibiotics. Following trypsin harvesting 10 million cells were redissolved in 500 μl phosphate buffer (PBS) and transferred to a 10 mm NMR tube and placed with connecting tubing in a 14.1 T magnet at 37 C.
(§2) Following dissolution in 5 ml phosphate buffer (40 mM pH 7.3) with addition of 2.5 μl NaOH to neutralize the pyruvic acid 2 ml of the substrate mixture was injected into 10 million cells in suspension. A series of 20 degree pulses every 2 s (56 scans in total) was acquired. The acquisition was started just before injection of the hyperpolarized substrate. Data are presented as metabolite signals as a function of time or as area under the curve of the metabolite signals.

[2] = Liquid-state 13C-NMR after dissolution of hyperpolarized sample (T1, polarization, hydrolysis); assay type: physicochemical; details: for T1, 37 C. 14.1 T: 13C longitudinal relaxation time, in s (unit assumed)
Procedure: C) The sample was dissolved in 5 ml phosphate buffer (40 mM, pH 7.3).

[3] = system: Human prostate cancer cells (PC-3); experiment: Carboxyl esterase CE-2 activity by in cell DNP conversion in PC-3 cells, co-polarized with 1-13C-pyruvate; assay type: cell-based; details: for AUC (arb. Units), area under the metabolic curve: 10 million cells, approx. 3.5 mM of each substrate, 37 C
Procedure: as §1
(§3) Human cancer cells (PC-3) were grown in RPMI+10% FBS and antibiotics. Following trypsin harvesting 10 million cells were redissolved in 500 μl phosphate buffer (PBS) and transferred to a 10 mm NMR tube and placed with connecting tubing in a 14.1 T magnet at 37° C.
as §2

[4] = system: prostate of healthy Copenhagen rats; experiment: DNP-MRI conversion in the healthy prostate of living rats; assay type: in vivo, rat; details: intravenous, about 0.4 mmol/kg, n=2 rats
Procedure: DNP-MRI experiment has been performed on 2 healthy Copenhagen rats, 9 weeks old, with average weight of 180 g.
0.24 mmol of a 1-^13C-1,1-Bis(acetoxy(methyl-d2))-2,2′-d4-cyclopropane sample prepared following the description in Example 2A was hyperpolarized according to the conditions reported in example 2.B. The solid sample was then dissolved in 5 ml TRIS buffer (100 mM, pH 7.7) to obtain a hyperpolarized solution with 48 mM substrate concentration and a pH of 7.
2.8 ml of the dissolved hyperpolarized 1-^13C-1,1-Bis(acetoxy(methyl-d2))-2,2′-d4-cyclopropane solution was injected intravenously at an injection rate of about 0.25 mL/s through a catheter placed in the tail vein of the animal, resulting in a total administered close of about 0.4 mmol/kg. A time series of 64 NMR spectra separated by 3 s and generated by 10° radiofrequency pulses was acquired starting from 15 s before injection of the hyperpolarized substrate. In order to follow the whole metabolic fate of the molecules and the decay of the hyperpolarized signal. The ^13C MR signal was collected by a 20 mm surface coil placed around the prostate. Spatial localization of the signal has been achieved by combining the limited sensitivity volume of the receiving coil with a slice selective spectroscopic sequence including a single gradient kept on only during the excitation period.

[5] = DNP hyperpolarization in the solid state; assay type: physicochemical; details: DNP at 1.2 K, 3.35 T, microwave 93.900 GHz
Procedure: A) Finland radical, carboxylic acid form (0.7 mg, 0.67 μmol) was dissolved in 1-^13C-1,1-Bis(acetoxy(methyl-d2))-2,2′-d4-cyclopropane (45 μl, 50.7 mg, 0.27 mmol). To the solution was added a DMSO solution of the gadolinium complex ([alfa1,alfa4,alfa7-tris[(phenylmethoxy)methyl]-1,4,7,10-tetraazacyclododecane-1,4,7,10-tetraacetato(4-)]gadolinate(1-)]hydrogen) (0.75 mg of a 100 μmol/g solution). The concentration of radical and gadolinium were 15 mM and 1.6 mM respectively.
B) 30 μmol of a 1-^13C-1,1-Bis(acetoxy(methyl-d2))-2,2′-d4-cyclopropane sample made following the description in example 2.A was hyperpolarized. The composition was hyperpolarised under DNP conditions at 1.2 K in a 3.35 T magnetic field under irradiation with microwave (93.900 GHz). The polarization build-up constant was 750 s. The solid-state polarization was approx. 15%.

[6] = system: Human prostate cancer cells (PC-3) in comparison to healthy human prostate cells (PNT-1A); experiment: In cell DNP conversion in PC-3 cells compared with healthy PNT-1A cells; assay type: cell-based; details: 10 million cells, approx. 3.5 mM substrate
Procedure: The experiments were performed with a polarization of 1-^13C-1,1-Bis(acetoxy(methyl-d2))-2,2′-d4-cyclopropane (30 μmol) resulting in a concentration of approx. 3.5 mM of this substrate in the experiments. The DNP preparation of 1-^13C-1,1-Bis(acetoxy(methyl-d2))-2,2′-d4-cyclopropane was performed as described in example 2.
as §3, with “Human prostate” for “Human”, “(PC-3) or immortalized human prostate healthy cells” for “(PC-3)”
as §2, with “7.3),” for “7.3) with addition of 2.5 μl NaOH to neutralize the pyruvic acid”

C[C@H](O)[13C](=O)O [1-13C-lactate, reference compound]
AUC (arb. Units), area under the metabolic curve [1]: 282 arb. Units | T1, 37 C. 14.1 T [2]: 40 ± 3 | AUC (arb. Units), area under the metabolic curve [3]: 3766 arb. Units

[2H]C([2H])(O)[13C]1(C([2H])([2H])OC(C)=O)C([2H])([2H])C1([2H])[2H] [1-^13C-1-(acetoxy(methyl-d2))-1-(hydroxy(methyl-d2))-2,2′-d4-cyclopropane]
AUC of metabolite relative to that of 1-13C-lactate [1]: ~30 times | AUC (arb. Units), area under the metabolic curve [1]: 43480 arb. Units | AUC of metabolite relative to that of 1-13C-lactate [3]: ~6 times | AUC (arb. Units), area under the metabolic curve [3]: 20550 arb. Units

O=[13C](O)/C=C/[13C](=O)O [1,4-13C2-Fumarate]
T1, 37 C. 14.1 T [2]: 35 ± 3

[2H]C([2H])(O)[13C]([2H])([2H])[N+](C)(C)C [2-13C-1,1,2,2-d4-choline]
T1, 37 C. 14.1 T [2]: 43 ± 4

O[13CH2][13C@H]1O[13CH](O)[13C@H](O)[13C@@H](O)[13C@@H]1O (some centres unmarked) [13C6-glucose]
T1, 37 C. 14.1 T [2]: 15 ± 2

N[C@@H](CC[13C](N)=O)C(=O)O [5-13C-glutamine]
T1, 37 C. 14.1 T [2]: 22 ± 2

[2H]C([2H])(O)[13C]1(C([2H])([2H])O)C([2H])([2H])C1([2H])[2H] [1-^13C-1,1-(dihydroxy(methyl-d2))-2,2′-d4-cyclopropane]
AUC (arb. Units), area under the metabolic curve [1]: 1559 arb. Units

CC(=O)[13C](=O)O [1-13C-pyruvate]
T1, 37 C. 14.1 T [2]: 45 ± 4

C[13C](=O)O [1-13C-acetate]
T1, 37 C. 14.1 T [2]: 50 ± 3

[2H]C([2H])(OC(C)=O)[13C]1(C([2H])([2H])OC(C)=O)C([2H])([2H])C1([2H])[2H] [1-^13C-1,1-Bis(acetoxy(methyl-d2))-2,2′-d4-cyclopropane]
uptake and metabolic conversion in rat prostate in vivo [4]: taken up by prostate cells and converted into its hyperpolarized metabolites | polarization build-up constant [5]: 750 s | solid-state polarization [5]: approx. 15% | metabolic conversion relative to hyperpolarized 1-13C pyruvate, comparing the maximum metabolite signal [1]: approx. 15 times | metabolic conversion in diseased cells (PC-3) relative to healthy cells (PNT-1A) [6]: approx. 6 times | liquid state polarization ([2]; 12 s after dissolution): 13% | T1, 37 C. 14.1 T [2]: 85 ± 4 | liquid state T1 ([2]; 14.1 T and 37 C, phosphate buffer 40 mM pH 7.3): approx. 85 s | hydrolysis in the dissolution process ([2]; dissolved in 5 ml phosphate buffer (40 mM, pH 7.3)): not hydrolysed | metabolic conversion relative to hyperpolarized 1-13C pyruvate, comparing the maximum metabolite signal [3]: more than 3 times

O=[13C](O)CC(O)[13C](=O)O (centres unmarked) [1,4-13C2-malate]
T1, 37 C. 14.1 T [2]: 30 ± 3

C[C@H](N)[13C](=O)O [1-13C-alanine]
T1, 37 C. 14.1 T [2]: 31 ± 2

CC([13CH3])CC(=O)C(=O)O (centres unmarked) [1-13C-2-ketoisocaproate]
T1, 37 C. 14.1 T [2]: 35 ± 4

1,3-ethyl acetoacetate
T1, 37 C. 14.1 T [2]: 27 ± 2

OC[C@H]1O[13CH](O)[C@H](O)[C@@H](O)[C@@H]1O (some centres unmarked) [1-13C-glucose]
T1, 37 C. 14.1 T [2]: 20 ± 2

Source: patent US10583209B2, “Hyperpolarized 1-13C-1,1-bis(acetoxy(methyl))-2,2′-cyclopropane as metabolic marker for MR” (BRACCO IMAGING S.P.A., priority 2013, dated 2020)
